Results published in patent US20190375786A1, “STABLE PEPTIDES AND METHODS OF USE THEREOF” (Fred Hutchinson Cancer Research Center, priority 2016, published 2019).
Positions of bridges follow the written chain, without caps; N, C: chain ends. Residues, ends and D or L forms follow the SMILES beside them.

Legend:
[1] = target: trypsin (Sus scrofa, UniProt P00761); experiment: Trypsin digestion resistance of soluble peptide, RP-HPLC; format: in vitro ADME, porcine; parameters: purchased Sigma Aldrich 6567; settings: 500 U/ml trypsin, 30 minutes at 37.5° C.; HPLC peak vs untreated peptide
Protocol: (§1) Peptides were first suspended in 500 μl of ddH2O to a stock concentration of 2 mg/ml. Reactions were prepared by adding 12.5 μg of peptide from the stock solution to a 10 mM solution of DTT in PBS and allowed to incubate at room temperature for 30 minutes. Other reactions were prepared with 12.5 μg peptide and 500 U/ml trypsin in 25 mM Tris/75 mM NaCl buffer (pH 7.0) and incubated for 30 minutes at 37.5° C. These reactions were then quenched with 5 μg of soybean trypsin inhibitor (I) and, in some cases, 10 mM dithiothreitol (DTT). Reversed phase HPLC (RP-HPLC) was run on samples using an Agilent 1260 HPLC equipped with a C-18 Poroshell 120B column. Sample were analyzed by a gradient method with a mobile phase of Solvent A (water with 0.1% TFA) and Solvent B (acetonitrile with 0.1% TFA). Solvent B was ramped up from 5%-45% of the mobile phase over a period of 10 minutes. For testing pepsin digestion resistance, reactions were prepared with 12.5 μg peptide with or without 500 U/ml pepsin in simulated gastric fluid (SGF; pH 1.05; […] sodium chloride in 0.7% (v/v) hydrochloric acid) and were incubated for 30 minutes at 37.5° C. For testing temperature resistance, peptides were incubated at 70° C., 75° C., or 100° C. for one hour in 0.5 mM PBS, pelleted, and then the supernatant was analyzed by HPLC.
(§2) This example illustrates peptide stability in biological conditions including in the presence of reducing agents, proteases, oxidative conditions, acidic conditions, and simulated gastric fluids. […] Various peptides were suspended in 500 μl of ddH2O at a stock concentration of 2 mg/ml. This was then diluted in accord with the reaction conditions to prevent adverse buffering effects. Reactions were prepared with 12.5 μg peptide dissolved in solution and, in some samples, additionally suspended in a 10 mM solution of DTT, simulated gastric fluid (pH 1.05; […] sodium chloride in 0.7% (v/v) hydrochloric acid), 500 U pepsin (5000 U/ml pepsin), 50 U trypsin (500 U/ml trypsin) with 1 mg/ml inhibitor in PBS, or a combination of any of these conditions. All protease reactions were incubated for 30 min at room temperature and then quenched. Pepsin reactions were quenched by adding Tris base to a final concentration of 0.075 M. Trypsin reactions were quenched by adding excess soybean trypsin inhibitor. RP-HPLC was then run on samples using an Agilent 1260 HPLC equipped with a C-18 Poroshell 120B column. Sample were analyzed by a gradient method with a mobile phase of Solvent A (water with 0.1% TFA) and Solvent B (acetonitrile with 0.1% TFA). Solvent B was ramped up from 5%-45% of the mobile phase over a period of 10 minutes.
Soluble peptides were exposed to 500 U/mL porcine trypsin and analyzed by HPLC. Protease resistance was also assessed by using SDPR-displaying peptides. The SDPR vector is similar to the a surface display GFP FasL(SDGF) vector, but contains a C-terminal 6×His tag (SEQ ID NO: 180) and all basic or aromatic amino acid residues on the stalk removed. Protease resistance is then tested by incubation of cells displaying peptides with trypsin or chymotrypsin, followed by incubation in 10 mM DTT, and staining with an anti-6×His fluorophore-labeled antibody (“6×His” disclosed as SEQ ID NO: 180). If peptides are uncleaved, they retain the His tag and are stained with by the antibody. A control protease-sensitive knottin peptide (SK) was used as a positive control. Cells displaying peptides were treated with up to 40 μg/ml trypsin or chymotrypsin.
FIG. 21 illustrates high performance liquid chromatograph (HPLC) traces of peptides after trypsin digestion. […] The assay was carried out by reconstituting 1 mg porcine trypsin (Sigma Aldrich 6567) in 1 mL of 1 mM HCl. Trypsin was provided at a concentration of 10,000 u/mL and thus, 5 μl of stock solution was equivalent to using 50 U of trypsin in each reaction. Soybean trypsin inhibitor (SA T9128) was prepared at 1 mg/mL of in H2O. […]

[2] = target: pepsin (Sus scrofa, UniProt P00791); experiment: Pepsin digestion resistance in simulated gastric fluid, RP-HPLC; format: in vitro ADME, porcine; parameters: purchased Sigma Aldrich P7012; settings: 500 U/ml pepsin in SGF pH 1.05, 30 minutes at 37.5° C.; HPLC peak vs untreated peptide
Protocol: Peptides were first suspended in 500 ul of ddH2O to a stock concentration of 2 mg/ml. Reactions were prepared by adding 12.5 ug of peptide from the stock solution to a 10 mM solution of DTT in PBS and allowed to incubate at room temperature for 30 minutes. Other reactions were prepared with 12.5 μg peptide with or without 500 U/ml pepsin in simulated gastric fluid (SGF; pH 1.05; […] sodium chloride in 0.7% (v/v) hydrochloric acid) and were incubated for 30 minutes at 37.5° C. Some reactions were quenched with a final concentration of 100 mM Tris base and 10 mM dithiothreitol (DTT). Some reactions were performed in all of the above components, including simulated gastric fluid, pepsin, Tris, and DTT (referred to as SPTD). Reversed phase HPLC (RP-HPLC) was run on samples using an Agilent 1260 HPLC equipped with a C-18 Poroshell 120B column. Sample were analyzed by a gradient method with a mobile phase of Solvent A (water with 0.1% TFA) and Solvent B (acetonitrile with 0.1% TFA). Solvent B was ramped up from 5%-45% of the mobile phase over a period of 10 minutes. Peptides were detected at an absorbance of 214 nm and 280 nm.
as §1, §2
FIG. 20 illustrates high performance liquid chromatograph (HPLC) traces of peptides after pepsin digestion. […]

Sequence of pepsin (P00791 60-385): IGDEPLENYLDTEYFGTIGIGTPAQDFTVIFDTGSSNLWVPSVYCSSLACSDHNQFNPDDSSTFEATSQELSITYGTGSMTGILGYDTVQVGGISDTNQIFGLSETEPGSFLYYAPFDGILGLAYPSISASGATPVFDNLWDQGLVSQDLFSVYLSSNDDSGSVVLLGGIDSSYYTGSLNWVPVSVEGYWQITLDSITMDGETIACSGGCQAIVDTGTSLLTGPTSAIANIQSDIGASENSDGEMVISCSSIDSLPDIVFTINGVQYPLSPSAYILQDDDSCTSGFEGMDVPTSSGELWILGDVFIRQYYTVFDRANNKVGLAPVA
Sequence of trypsin (P00761 9-231): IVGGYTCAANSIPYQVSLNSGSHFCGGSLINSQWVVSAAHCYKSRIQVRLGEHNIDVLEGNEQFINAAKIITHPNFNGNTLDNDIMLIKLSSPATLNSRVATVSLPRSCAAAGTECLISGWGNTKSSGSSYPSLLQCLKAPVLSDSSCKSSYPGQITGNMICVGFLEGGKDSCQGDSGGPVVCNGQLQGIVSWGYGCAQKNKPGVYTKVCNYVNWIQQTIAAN

Row | SMILES | Resistance to Trypsin (500 U/ml) [1] | Resistance to Pepsin (500 U/ml) [2]
1 | CC[C@H](C)[C@@H]1NC(=O)[C@H](CCC(=O)O)NC(=O)[C@H](CCCNC(=N)N)NC(=O)[C@H](CCCNC(=N)N)NC(=O)[C@@H]2CSSC[C@@H](C(=O)N[C@@H](Cc3ccc(O)cc3)C(=O)N[C@@H](CCCNC(=N)N)C(=O)N[C@@H](CC(N)=O)C(=O)O)NC(=O)[C@H](C(C)C)NC(=O)[C@@H]3CSSC[C@H](NC(=O)[C@H](CO)NC(=O)CNC(=O)CNC(=O)[C@H](CCC(N)=O)NC(=O)[C@@H](NC(=O)[C@H](CCCCN)NC(=O)[C@@H](NC(=O)[C@H](CC(N)=O)NC(=O)[C@@H](NC(=O)[C@H](CCC(N)=O)NC(=O)[C@@H](NC(=O)[C@H](CCC(N)=O)NC(=O)[C@H](CO)NC(=O)CN)C(C)C)[C@@H](C)O)C(C)C)CSSC[C@H](NC(=O)[C@H](CCCCN)NC(=O)CNC(=O)[C@H](C)NC(=O)[C@H](C)NC(=O)[C@H](C(C)C)NC(=O)CNC1=O)C(=O)N[C@@H]([C@@H](C)CC)C(=O)N[C@@H](CC(N)=O)C(=O)NCC(=O)N[C@@H](CCCCN)C(=O)N3)C(=O)N[C@@H](C)C(=O)N[C@@H](CO)C(=O)N[C@@H](C(C)C)C(=O)N2 [compound 30] (H-GSQVQTNVKCQGGSCASVCRREIGVAAGKCINGKCVCYRN-OH; disulfide 10-30, 15-35, 19-37) | Low (A peptide classified as low indicates that the majority (over 75%) of the HPLC peak of the treated peptide disappeared as compared to the HPLC peak of the untreated peptide) | Moderate (A peptide classified as medium indicates that about half (between 25% and 75%) of the HPLC peak of the treated peptide disappeared as compared to the HPLC peak of the untreated peptide)
2 | CC[C@H](C)[C@@H]1NC(=O)[C@@H]2CSSC[C@H](NC(=O)[C@H](C)NC(=O)CNC(=O)[C@H](CCC(=O)O)NC(=O)[C@@H](NC(=O)[C@H](CCCCN)NC(=O)[C@H](Cc3ccccc3)NC(=O)[C@H](CC(N)=O)NC(=O)[C@H](CO)NC(=O)CN)C(C)C)C(=O)N[C@@H](CO)C(=O)N[C@@H](CCCCN)C(=O)N3CCC[C@H]3C(=O)N[C@H]3CSSC[C@H](NC(=O)[C@H](CCCNC(=N)N)NC(=O)CNC(=O)[C@H](CC(N)=O)NC1=O)C(=O)N[C@@H](Cc1c[nH]cn1)C(=O)N[C@H](C(=O)N[C@@H](Cc1ccc(O)cc1)C(=O)N[C@@H](Cc1ccc(O)cc1)C(=O)O)CSSC[C@H](NC(=O)[C@H](Cc1ccc(O)cc1)NC(=O)[C@H](CCCCN)NC(=O)[C@H](CCCNC(=N)N)NC3=O)C(=O)N[C@@H]([C@@H](C)CC)C(=O)N[C@@H](CC(=O)O)C(=O)N[C@@H](CCCCN)C(=O)NCC(=O)N[C@@H](C)C(=O)N[C@@H](CCCNC(=N)N)C(=O)N[C@@H](CC(N)=O)C(=O)NCC(=O)N[C@@H](CCCCN)C(=O)N2 [compound 5] (H-GSNFKVEGACSKPCRKYCIDKGARNGKCINGRCHCYY-OH; disulfide 10-28, 14-33, 18-35) | Moderate (A peptide classified as medium indicates that about half (between 25% and 75%) of the HPLC peak of the treated peptide disappeared as compared to the HPLC peak of the untreated peptide) | Moderate (A peptide classified as medium indicates that about half (between 25% and 75%) of the HPLC peak of the treated peptide disappeared as compared to the HPLC peak of the untreated peptide)
3 | CC[C@H](C)[C@H](NC(=O)CNC(=O)[C@H](CO)NC(=O)CN)C(=O)N[C@H](C(=O)N[C@H]1CSSC[C@@H]2NC(=O)[C@H]([C@@H](C)CC)NC(=O)[C@H](CC(N)=O)NC(=O)[C@H](C(C)C)NC(=O)[C@H](CCCCN)NC(=O)[C@H](CCCCN)NC(=O)CNC(=O)[C@H](CCC(N)=O)NC(=O)[C@H](CCSC)NC(=O)CNC(=O)[C@@H]3CSSC[C@@H](C(=O)N[C@@H](CCCCN)C(=O)N[C@@H](CCCCN)C(=O)NCC(=O)O)NC(=O)[C@H](CCCCN)NC(=O)[C@H](CSSC[C@H](NC(=O)[C@H](C(C)C)NC(=O)[C@H](CCCCN)NC1=O)C(=O)N[C@@H](CCCCN)C(=O)N[C@@H]([C@@H](C)CC)C(=O)N[C@@H]([C@@H](C)CC)C(=O)N3)NC(=O)[C@H](CCCCN)NC(=O)[C@H]([C@@H](C)CC)NC(=O)[C@@H]1CCCN1C(=O)[C@H](C)NC(=O)[C@H](CCCCN)NC2=O)C(C)C [compound 55] (H-GSGIVCKVCKIICGMQGKKVNICKAPIKCKCKKG-OH; disulfide 6-23, 9-29, 13-31) | Low (A peptide classified as low indicates that the majority (over 75%) of the HPLC peak of the treated peptide disappeared as compared to the HPLC peak of the untreated peptide) | High (A peptide classified as high indicates that the majority (at least 75%) of the HPLC peak of the treated peptide is still present as compared to the HPLC peak of the untreated peptide)
4 | CC[C@H](C)[C@H](NC(=O)[C@H](CC(=O)O)NC(=O)[C@@H](NC(=O)[C@@H]1CCCN1C(=O)[C@H](CCCNC(=N)N)NC(=O)[C@H](CO)NC(=O)CN)[C@@H](C)O)C(=O)N[C@@H](CCCCN)C(=O)N[C@H]1CSSC[C@@H]2NC(=O)[C@H](CCCNC(=N)N)NC(=O)CNC(=O)[C@H](CC(N)=O)NC(=O)[C@H]([C@@H](C)O)NC(=O)[C@H](CCCCN)NC(=O)CNC(=O)[C@H](Cc3ccccc3)NC(=O)[C@H](CCCNC(=N)N)NC(=O)[C@H](CO)NC(=O)[C@H](CCCCN)NC(=O)[C@@H]3CSSC[C@@H](C(=O)N[C@@H](Cc4ccccc4)C(=O)O)NC(=O)[C@H](CC(=O)O)NC(=O)[C@H](CSSC[C@H](NC(=O)[C@H](CCC(N)=O)NC(=O)[C@H](Cc4ccc(O)cc4)NC(=O)[C@H](CO)NC(=O)[C@H](C)NC(=O)[C@H](CO)NC1=O)C(=O)N[C@@H](Cc1ccccc1)C(=O)N1CCC[C@H]1C(=O)N[C@@H](C(C)C)C(=O)N3)NC(=O)[C@H](CC(C)C)NC(=O)CNC(=O)[C@H](CC(N)=O)NC(=O)[C@H](C(C)C)NC2=O [compound 10] (H-GSRPTDIKCSASYQCFPVCKSRFGKTNGRCVNGLCDCF-OH; disulfide 9-30, 15-35, 19-37) | Low (A peptide classified as low indicates that the majority (over 75%) of the HPLC peak of the treated peptide disappeared as compared to the HPLC peak of the untreated peptide) | High (A peptide classified as high indicates that the majority (at least 75%) of the HPLC peak of the treated peptide is still present as compared to the HPLC peak of the untreated peptide)
